Results: patent publication US20190151271A1, “COMPOSITIONS AND METHODS FOR TREATMENT OF EYE DISEASES” (The Johns Hopkins University, priority 2017, published 2019)

Legend:
[1] = Evaluation of retinal penetration of NACA: NACA/NAC levels in plasma, aqueous, vitreous and retina after 20 mg/mL NACA in drinking water for 7 days; assay type: in vivo, mice (rd10 and wild type C57/BL6); conditions: for mean level in aqueous humor compared with plasma: 20 mg/mL NACA in drinking water (FIG. 2); for measurability in the retina: animals treated with NACA, N=20 eyes per strain (FIG. 4); for mean level in retina compared with plasma: either type of mice (FIG. 4 compared to FIG. 1); for mean retina levels: 20 mg/mL NACA in drinking water P28-P35, estimated dose 60-80 mg/day
Protocol: The objective of this study was to determine retinal levels of NACA/NAC after administration of 20 mg/mL NACA in drinking water for 7 days in a mouse model of RP and in wild type mice. This experiment was designed to provide rapid confirmation that NACA and/or NAC penetrate the retina following oral administration and to allow comparison of the tissue levels of NACA and NAC in vitreous and retina to plasma. It also provided a comparison of retinal penetration in mice with RP and wild type mice to determine if the breakdown in the blood-retinal barrier in RP affects the levels of NACA in the retina.
Animals and Treatments. Mice were treated in accordance with the recommendations of the Association for Research in Vision and Ophthalmology. Litters of homozygous rd10/rd10 mice (B6.CXB1-Pde6brd10/J) and wild type C57/BL6 mice (The Jackson Laboratory, Bar Harbor, Me.) were used for these studies.
Starting on post-natal day 28 (P28), animals were given normal drinking water (controls, n=10 for each strain) or water containing 20 mg/ml NACA (n=10 for each strain).
Analysis of NACA and NAC. Upon sacrifice of the mice on P35 (post-natal day 35), retina, aqueous, vitreous and plasma were collected, weighed, and stabilized as quickly as possible and stored at −80° C. prior to shipment to AIT Bioscience, LLC (Indianapolis, Ind.). The qualified bioanalytical method (BAM.0445.01) for the quantitation of total NAC NACA in K2EDTA was based on derivatization, protein precipitation extraction, and LC-MS/MS instrumental analysis. Any disulfides were reduced to free thiols and subsequently reacted with 2-chloro-1-methylpyridinium iodide (CMPI) to form stable thioethers. The thioether derivatives were detected by LC-MS/MS. Stable label isotope internal standards were used. The method covered a concentration range from 50.0 to 50,000 ng/mL.
Evaluation of Retinal Penetration of NACA. To determine retinal levels of NACA/NAC after administration of 20 mg/mL NACA in drinking water for 7 days. This experiment was designed to provide rapid confirmation that NACA penetrates the retina following oral administration and to compare levels of NACA and its major metabolite, NAC. in retina, aqueous humor, vitreous humor and plasma. This experiment was also designed to evaluate if the breakdown in the blood-retinal barrier in RP (simulated by the rd10 mice) affects the levels of NACA in the retina by comparing animals with RP to wild type mice.
Rd10 and C57BL/6 wild type mice began treatment at P28 (post-natal day 28), at P35 mice were euthanized and plasma, vitreous and retina samples were sent to AITBioscences (Indianapolis, Ind.) for determination of NACA and NAC levels by a validated method using high-pressure liquid chromatography with tandem mass spectrometric/mass spectrometric detection (LCMS). Experimental groups: (n=10/group). The research was performed in 4 discrete treatment groups: • 1. Rd10 allowed to freely drink NACA 20 mg/mL-spiked drinking water with measurements at P35; • 2. Rd10 allowed to freely drink untreated water with measurements at P35; • 3. C57/BL6 NACA 20 mg/mL in drinking water measurements at P35; • 4. C57/BL6 allowed to freely drink untreated water with measurements at P35.

[2] = cited from earlier work; for plasma level: rats, within 30 minutes following oral administration of 500 mg/kg NACA; for detection in the brain: within 30 minutes following oral administration of NACA
[3] = oral formulations; cited from earlier work
[4] = system: cone survival; conditions: orally administered; cited from earlier work
[5] = system: rd10 mice; conditions: 7 mg/mL NACA versus 20 mg/mL NAC in drinking water, P35 and P50; cited from earlier work
[6] = system: human retinal pigment epithelial cells; conditions: cited from earlier work
[7] = system: mice exposed to phototoxic doses of light; conditions: cited from earlier work

Molecule | mean level in aqueous humor compared with plasma [1] | measurability in the retina [1] | mean level in retina compared with plasma [1] | plasma level [2] [µM] | detection in the brain [2] | systemic bioavailability for oral administration [3] [%] | cone survival and cone function [4] | ratio of NACA:NAC in the retina, rd10 mice compared with C57/B16 mice ([1]; 20 mg/mL NACA in drinking water (FIG. 5)) | mean plasma level, rd10 mice compared with wild type ([1]; 20 mg/ml NACA in drinking water (FIG. 1)) | level in vitreous humor ([1]; N=7 or 8 eyes rd10, N=10 eyes C57/B16 (FIG. 3)) | mean concentration in aqueous humor, rd10 mice compared with wild type ([1]; N=8 eyes rd10, N=10 C57/B16 (FIG. 2)) | mean NACA level in plasma compared with NAC level ([1]; both strains, 20 mg/ml NACA in drinking water, N=10 per strain (FIG. 1)) | mean retina levels ([1]; rd10 mice) | mean retina levels ([1]; wild type mice) [µg/g] | protection of scotopic and photopic b-waves and cone density [5] | protection against oxidative stress-induced cellular injury and death [6] | retinal pigment epithelial cell integrity, outer nuclear layer cell death, photoreceptor function [7]
CC(=O)N[C@@H](CS)C(=O)O [NAC, N-Acetylcysteine, reference compound] | lower than in plasma | measurable in all animals treated with NACA | higher, in either type of mice, than those observed in plasma | 84.55 ± 6.73 | detected in the brain | < 10 | promotes prolonged cone survival and maintenance of cone function | – | – | – | – | – | – | – | – | – | –
N-acetylcysteine amide [NACA] | lower than in plasma | measurable in all animals treated with NACA | higher, in either type of mice, than those observed in plasma | 15.07 ± 5.08 | detected in the brain | – | – | greater in the retina of rd10 mice than in C57/B16 mice | greater in rd10 mice than in the wild type | A similar pattern was observed | higher in rd10 mice than wild type | greater than the NAC levels in both strains of mice | approximately 6.5 μg/g | ~2.4 | more effective | protected against oxidative stress-induced cellular injury and death | maintained retinal pigment epithelial cell integrity, prevented outer nuclear layer cell death and rescued photoreceptor function
